{"source": "patent US10980776B2", "about": "“Synergistic pharmaceutical combination for the treatment of squamous cell carcinoma of head and neck” (Piramal Enterprises Limited, priority 2011, dated 2021)", "key": {"[1]": {"test_system": "FaDu (hypopharyngeal squamous cell carcinoma) xenografts", "assay": "In vivo efficacy in human head and neck cancer FaDu xenografts", "conditions": "FaDu xenografts in SCID mice; end of treatment, after 18 days; Compound A 35 mpk i.p. once daily 5 days a week; cisplatin 1 mpk i.p. once a week; cetuximab 2.5 mpk twice a week; 3 weeks", "quoted_text": "In-vivo studies were carried out according to the method described in Clinical cancer search, 2003, 9, 6052-6061; the disclosure of which is incorporated herein by reference for the teaching of the assay.\nThe in-vivo studies were carried out using Xenograft models in Severe combined immune deficiency (SCID) mice strain—CbySmn.CB17-Prkdcscid/J, by the method described below. The statistically significant number of mice per group (n=6) was chosen in order to be able to statistically evaluate the study data.\nFaDu cells were grown in MEM (minimum essential media) medium containing non-essential amino acids and 10% fetal calf serum in 5% CO2 incubator at 37° C. Cells were pelleted by centrifugation at 1000 rpm for 10 minutes. Cells were resuspended in pre-chilled mixture of saline to get a count of 6×10^6 cells per mL; 0.2 ml of this cell suspension was kept on ice and injected by subcutaneous (s.c.) route in SCID mice. Mice were observed every alternate day for palpable tumor mass. Once the tumor size reached a size of 3-5 mm in diameter, animals were randomized into respective groups of treatment and untreated controls. The treatment groups comprised of 5 groups viz. […] The control group received no treatment.\nMeasurement of tumor was done every 2-3 days apart. Growth inhibition percentage (GI %) was calculated at the end of experiment."}, "Detroit-562 cells [2]": {"test_system": "Detroit-562 cells", "assay": "Combination studies (single and sequential combination dosing), % cytotoxicity in Detroit-562 cells", "conditions": "Detroit-562", "method": "(§1) Logarithmically growing cells were plated at a density of 3×10^3 cells/well and allowed to recover overnight. […] After 72 hours, cell toxicity was determined by CCK-8 (Cell Counting Kit-8) reagent (Dojindo Molecular Technologies, Japan); WST-8 (2-(2-methoxy-4-nitrophenyl)-3-(4-nitrophenyl)-5-(2, 4-disulfophenyl)]-2H-tetrazolium, monosodium salt) assay. In accordance with the manufacturer's instructions, 5 μl/well CCK-8 reagent was added and plates were incubated for 2 hours. The toxicity was determined by measuring the absorbance on Tecan Sapphire multi-fluorescence micro-plate reader (Tecan, Germany, GmbH) at a wavelength of 450 nm corrected to 650 nm and normalized to controls.\n(§2) CCK-8 allows convenient assays using Dojindo's tetrazolium salt, WST [8[(2-(2-methoxy-4-nitrophenyl)-3-(4-nitrophenyl)-5-(2,4-disulfophenyl)-2H-tetrazolium, monosodium salt], which produces a water-soluble formazan dye upon bioreduction in the presence of an electron carrier, 1-Methoxy PMS. CCK-8 solution is added directly to the cells; no pre-mixing of components is required. CCK-8 is a sensitive nonradioactive colorimetric assay for determining the number of viable cells in cell proliferation and cytotoxicity assays. WST-8 is bio-reduced by cellular dehydrogenases to an orange formazan product that is soluble in tissue culture medium. The amount of formazan produced is directly proportional to the number of living cells. The detection sensitivity of cell proliferation assays using WST-8 is higher than assays using the other tetrazolium salts such as MIT, XTT, MTS or WST-1. Optical Density was determined at measurement wavelength of 450 nm and reference wave length of 630 nm.\n(§3) Sorafenib in the following dose of final concentration 1.8 μM and compound A in the following doses of final concentration 0.5 μM, 1.3 μM and 12.1 μM were analyzed in single dose and in all possible combinations of the dose range for the two anticancer agents mentioned above. The sequence of treatment is as follows; Detroit-562 cells were treated with sorafenib for 0 to 24 hrs. At the end of 24 hrs the cells were washed two times with plain MEM medium. Fresh MEM with 10% serum (200 μL/well) was added, followed by treatment with compound A from 24 hrs to 96 hrs.\nas §3, with “compound B” for “compound A”, “concentration 2.7” for “concentration 0.5”, “μM, 14.1” for “μM, 1.3”, “and 25.2” for “and 12.1”, “follows; the” for “follows;”\nas §3, with “Lapatinib” for “Sorafenib”, “1” for “1.8”, “follows; the” for “follows;”, “lapatinib” for “sorafenib”\n(§4) Lapatinib in the following dose of final concentration 1.0 μM and compound B in the following doses of final concentration 2.7 μM, 14.1 μM and 25.2 μM were analyzed in single dose and in all possible combinations of the dose range for the two drugs mentioned above. The sequence of treatment is as follows; the Detroit-562 cells were treated with lapatinib for 0 to 24 hrs. At the end of 24 hrs the cells were washed two times with plain MEM medium. Fresh MEM with 10% serum (200 μL/well) was added, followed by treatment with compound A from 24 hrs to 96 hrs."}, "FADU cells [3]": {"test_system": "FADU cells", "assay": "CCK-8 cytotoxicity assay, determination of inhibitory concentrations in FADU cells", "assay_type": "cell-based, human", "conditions": "72 hr", "method": "as §1, §2\n(§5) The cells were seeded at a density of 3000 cells/well, in a 200 μL in tissue culture grade 96 well plate and were allowed to recover for 24 hrs in a humidified 5%±0.2 CO2 incubator at 37° C.±0.5° C. […] The final DMSO concentration was 0.5% in wells. Plates were incubated for 48 hrs in humidified 5%±0.2 CO2 incubator at 37±0.5° C. After 48 hrs the plates were removed from CO2 incubator and 5 μL of Cell counting Kit (CCK-8) per well was added. The same plate was kept at 37° C. for 3 hrs, and allowed to come to room temperature. The absorbance at a wavelength of 450 nm was read on Tecan safire reader. The percent cytotoxicity was calculated using the following formula."}, "SCC-25 cells [4]": {"test_system": "SCC-25 cells", "assay": "CCK-8 cytotoxicity assay, determination of inhibitory concentrations in SCC-25 cells", "assay_type": "cell-based", "conditions": "SCC-25 cells, 72 hr", "method": "as §1, §2, §5"}, "Detroit-562 cells [5]": {"test_system": "Detroit-562 cells", "assay": "CCK-8 cytotoxicity assay, determination of inhibitory concentrations in Detroit-562 cells", "assay_type": "cell-based", "conditions": "72 hr", "method": "as §1, §2, §5"}, "SCC-25 cells [6]": {"test_system": "SCC-25 cells", "assay": "Combination studies (single and sequential combination dosing), % cytotoxicity in SCC-25 cells", "conditions": "SCC-25; single agent at IC70 (compound A 4.1 μM)", "method": "as §1, §2\nSorafenib in the following dose of final concentration 0.18 μM and compound A in the following doses of final concentration 0.1 μM, 0.4 μM and 4.1 μM were analyzed in single dose and in all possible combinations of the dose range for the two anticancer agents mentioned above. The sequence of treatment is as follows; the SCC-25 cells were treated with sorafenib for 0 to 24 hrs. At the end of 24 hrs the cells were washed two times with plain MEM (minimum essential media) medium. Fresh MEM with 10% serum (200 μL/well) was added, followed by treatment with compound A from 24 hrs to 96 hrs.\nSorafenib in the following dose of final concentration 0.18 μM and compound B in the following doses of final concentration 0.2 μM, 1.1 μM and 4.8 μM were analyzed in single dose and in all possible combinations of the dose range for the two anticancer agents mentioned above. The sequence of treatment is as follows; the SCC-25 cells were treated with sorafenib for 0 to 24 hrs. At the end of 24 hrs the cells were washed two times with plain MEM medium. Fresh MEM with 10% serum (200 μL/well) was added, followed by treatment with compound B from 24 hrs to 96 hrs.\nas §4, with “0.2” for “1.0”, “A” for “B”, “0.2” for “2.7”, “0.5” for “14.1”, “3.3” for “25.2”, “SCC-25” for “Detroit-562”\nas §4, with “0.2” for “1.0”, “0.2” for “2.7”, “1.1” for “14.1”, “4.8” for “25.2”, “SCC-25” for “Detroit-562”"}, "FADU cells [7]": {"test_system": "FADU cells"}}, "data": [{"smiles": "CN1CC[C@@H](c2c(O)cc(O)c3c(=O)cc(-c4ccccc4Cl)oc23)[C@@H]1CO.Cl", "note": "(relative stereo) [Compound A, (+)-trans-2-(2-Chloro-phenyl)-5,7-dihydroxy-8-(2-hydroxy-methyl-1-methyl-pyrrolidin-3-yl)-chromen-4-one hydrochloride]", "values": [{"measurement": "Tumor Growth inhibition (%)", "setting": "[1]", "result": 11, "unit": "%"}, {"measurement": "% Cytotoxicity", "setting": "Detroit-562 cells [2]; single agent at IC50 (compound A 1.3 μM), lapatinib study", "result": 22, "unit": "%"}, {"measurement": "% Cytotoxicity", "setting": "Detroit-562 cells [2]; single agent at IC70, cisplatin/5-FU/compound A study", "result": 18.02, "unit": "%"}, {"measurement": "% Cytotoxicity", "setting": "Detroit-562 cells [2]; single agent at IC70, erlotinib study", "result": 34.32, "unit": "%"}, {"measurement": "IC10", "setting": "FADU cells [3]", "result": 80, "unit": "nM"}, {"measurement": "IC30", "setting": "FADU cells [3]", "result": 200, "unit": "nM"}, {"measurement": "IC50", "setting": "FADU cells [3]", "result": 1300, "unit": "nM"}, {"measurement": "IC70", "setting": "FADU cells [3]", "result": 8300, "unit": "nM"}, {"measurement": "IC90", "setting": "FADU cells [3]", "result": 28300, "unit": "nM"}, {"measurement": "IC30", "setting": "SCC-25 cells [4]", "result": 100, "unit": "nM"}, {"measurement": "IC70", "setting": "SCC-25 cells [4]", "result": 4100, "unit": "nM"}, {"measurement": "IC90", "setting": "SCC-25 cells [4]", "result": 33300, "unit": "nM"}, {"measurement": "IC50", "setting": "SCC-25 cells [4]; read-out: IC50", "result": 400, "unit": "nM"}, {"measurement": "IC10", "setting": "Detroit-562 cells [5]", "result": 100, "unit": "nM"}, {"measurement": "IC30", "setting": "Detroit-562 cells [5]", "result": 500, "unit": "nM"}, {"measurement": "IC50", "setting": "Detroit-562 cells [5]", "result": 1300, "unit": "nM"}, {"measurement": "IC70", "setting": "Detroit-562 cells [5]", "result": 12100, "unit": "nM"}, {"measurement": "IC90", "setting": "Detroit-562 cells [5]", "result": 26300, "unit": "nM"}, {"measurement": "% Cytotoxicity", "setting": "SCC-25 cells [6]", "result": 29, "unit": "%"}, {"measurement": "cytotoxicity", "setting": "FADU cells [7]", "result": 18, "unit": "%"}]}]}
